Experimental data taken from patent publication US20240067931A1, “METHODS AND COMPOSITIONS FOR SMALL MOLECULE BASED PANCREATIC BETA CELL INDUCTION” (Trailhead Biosystems Inc., priority 2022, published 2024).
“Also recorded” adds a separate entry of the source. Peptide text beside a SMILES is read from it.

B1: Cardiotropin: factor tested in HD-DoE for INS induction (protein, UniProt Q16619 1-201, looked up)
Cardiotrophin-1: MSRREGSLEDPQTDSSVSLLPHLEAKIRQTHSLAHLLTKYAEQLLQEYVQLQGDPFGLPSFSPPRLPVAGLSAPAPSHAGLPVHERLRLDAAALAALPPLLDAVCRRQAELNPRAPRLLRRLEDAARQARALGAAVEALLAALGAANRGPRAEPPAATASAASATGVFPAKVLGLRVCGLYREWLSRTEGDLGQLLPGGSA

Columns and labels:
Type in all cases: cell-based, human
[1] = test system: INS; experiment: HD-DoE screening for optimal de novo beta cell induction (stage 3 cultures, 3 day perturbation), INS induction; conditions: for factor contribution, induction of INS: Example 19, four HD-DoE panels, FIG. 20; for effect on INS induction: heat map FIG. 21, dynamic profiling FIGS. 22-25
Protocol: FIG. 18 HD-DoE screening for optimal de novo beta cell induction. Culture of the iPSC cell line CR01 were differentiated to a DFE state for 3 days. These cultures were then incubated in the presence of stage 2 media for an additional 3 days. These cultures were then incubated for an additional 5 days in the presence of GSI-XX and A8301 followed by a 3 day incubation in the presence of a perturbation matrix composed of the compounds indicated in the different panels. This was performed 3 separate times (once for each of the 3 panels). These HD-DoE experiments were then analyzed using MODDE software for maximal induction of insulin. The predicted results are shown.
FIG. 20 HD-DoE screening for optimal de novo beta cell induction. Cultures of the iPSC cell line CR01 were differentiated to a DFE state for 3 days. These cultures were then incubated in the presence of stage 2 media for an additional 3 days. These cultures were then incubated for an additional 5 days in the presence of GSI-XX and A8301 followed by a 3 day incubation in the presence of a perturbation matrix composed of the compounds indicated in the different panels. This was performed 4 separate times (once for each of the 4 panels). These HD-DoE experiments were then analyzed using MODDE software for the maximal induction of Insulin. The predicted results are shown.
(§1) FIGS. 22-25. Dynamic profiling of endocrine sub-type regulation. One of the HD-DoE experiments shown in Example 19 was analyzed using MODDE software and dynamic profiling of the endocrine products GCG, SST and INS are shown.
To define factors contributing to the activation of INS, a series of HD-DoE perturbations were performed using factors chosen to target different aspects of beta cell biology.
To define factors contributing to the activation of INS, a series HD-DoE perturbations were performed using factors chosen to target different aspects of beta cell biology.

[2] = test system: GCG (alpha cell marker); experiment: HD-DoE stage 3 screening, heat map and dynamic profiling: GCG; conditions: heat map FIG. 21, dynamic profiling FIGS. 22-25
Description: (§2) FIG. 19 Heat map showing descending factor contributions for the induction of INS. The three HD-DoE experiments shown in Example 17 were used for modeling the maximal expression of several other genes, including GCG, SST, PDX1, PAX4, MAFA and NKX2.2, which are indicative of endocrine cell types with a focus on pancreatic beta cells as indicated at the top of the heat map. The relative factor contributions for the activation of these different genes were then used to generate a secondary heat map representative of the gene induction logic and then ranked according to the compound's ability to induce INS. Dark blue colors indicate a high inductive capacity, while dark red colors indicative of a highly repressive capacity for activation of the genes are shown.
(§3) FIG. 21 Heat map showing descending factor contributions for the induction of INS. The four HD-DoE experiments shown in Example 19 were used for modeling the maximal expression of several other genes. These genes were GCG, SST, PDX1, PAX4, MAFA and NKX2.2. These genes are all indicative of endocrine cell types with a focus on the beta cell as indicated at the top of the heatmap. The relative factor contribution for the activation of these different genes were then used to generate a secondary heat map representative of these genes induction logic and then ranked order according to the compounds ability to induce INS. Dark blue indicates high inductive capacity, while dark red is indicative of a highly repressive effect for the activation of the genes shown.
as §1

[3] = test system: SST (delta cell marker); experiment: HD-DoE stage 3 screening, heat map and dynamic profiling: SST; conditions: heat map FIG. 21, dynamic profiling FIGS. 22-25
Description: as §2, §3, §1

[4] = test system: PDX1; experiment: HD-DoE perturbation matrix on DFE culture, modelling for maximal PDX1 induction; conditions: DFE culture, HD-DoE, FIG. 11
Description: FIG. 11 Modelling for maximal PDX1 induction. Cultures of the iPSC cell line Cr01 was differentiated to a DFE state and then subjected to an HD-DoE perturbation matrix composed of the compounds indicated in the figure. MODDE software was used to predict the optimal condition for maximizing PDX1 activation. Predicted factor additives for this optimization and the relative expression under these conditions for the genes measured are shown.
FIG. 12 Coefficient plots show main effectors for pancreatic progenitor generation from a DFE precursor. Coefficients for the HD-DoE design shown in Example 9 are shown for PDX1 and PTF1A. The co-expression of these two genes is indicative of a pancreatic field.
To determine the best way for inducing a pancreatic fate from a DFE progenitor, a subsequent HD-DoE analysis was performed. Exposing a DFE culture to a perturbation matrix composed of all previously identified effectors shown to have a positive effect on PDX1 activation was used to define optimal conditions for PDX1 induction.

[5] = test system: GCG, SST, PDX1, PAX4, MAFA and NKX2.2; experiment: HD-DoE stage 3 screening, heat map and dynamic profiling of endocrine and beta cell genes; conditions: for effect on beta cell state / endocrine fate: heat map FIG. 21, dynamic profiling FIGS. 22-25; for effect on beta cell specific transcription factors / all genes optimized: heat maps FIG. 19 and FIG. 21
Description: as §2, §3, §1
To ascertain which factors could potentially favor the beta cell over other endocrine cell types, optimizers for markers of the other endocrine cell types and beta cell specific markers were compared. The relative factor contribution from the different optimizers were compared.
Optimizers for the main pancreatic endocrine hormones and beta cell-specific transcription factors were generated to compare their contribution factors for this series of HD-DoE. Compounds that could selectively favor the differentiation of the beta cell over that of the alpha and delta cells were identified in this manner.

Molecule	factor contribution, induction of INS [1]	effect on INS induction [1]	effect on GCG induction / alpha cell fate [2]	effect on SST induction / delta cell fate [3]	other results
NCCc1c[nH]c2ccccc12 [tryptamine]	21.2	strongest INS inducing effects	no effect	no effect	
CC(C)n1nc(C#Cc2ccccc2)c2c(N)ncnc21 [SPP86]	4.8	positive effect on INS induction, though with far less contribution			
CC1=C(/C=C/C(C)=C/C=C/C(C)=C/C(=O)O)C(C)(C)CCC1 [retinoic acid]					factor contribution, PDX1 activation [4]: 19.2
CCC(=O)O [propionate]	5.3	significantly increased INS levels	inhibited	inhibited	effect on beta cell state / endocrine fate [5]: preferentially favoring the beta cell fate, though to a lesser level
CC(C)Cn1c(=O)n(C)c(=O)c2[nH]cnc21 [IBMX]					effect on beta cell specific transcription factors / all genes optimized [5]: beneficial for all genes optimized
NC(=O)CC[C@H](N)C(=O)O [glutamine]	10.4				
FGF19: FGF pathway agonist		contributed to overall INS induction, but to a much smaller degree			
COc1cc(O)c2c(c1)/C=C/C[C@H](O)[C@H](O)C(=O)/C=C\C[C@H](C)OC2=O [(5Z)-7-oxozeanol, (5Z)-7-Oxozeaenol]					factor contribution, PDX1 activation [4]: 8.2
Nc1nc(Nc2ccc3c(c2)CC[C@@H](N2CCCC2)CC3)nn1-c1cc2c(nn1)-c1ccccc1CCC2 [R248]	22.9				effect on beta cell state / endocrine fate [5]: strongest inducers of the beta cell state
CN(CCOc1ccc(CC2SC(=O)NC2=O)cc1)c1ccccn1 (stereo not drawn) [rosiglitazone]	6.0				
NCCc1c[nH]c2ccc(O)cc12 [serotonin]			strongly activated GCG induction	inhibited SST induction	
Clc1ccc(C2(c3ccc(-c4cn[nH]c4)cc3)CCNCC2)cc1 [AT7867]					factor contribution, PDX1 activation [4]: 15.5
obestatin	9.6	contributed to the induction of INS			
Clc1cccc(Cl)c1N=C1NCCN1 [clonidine]		contributed to the induction of INS			contribution factor, activation of INS ([1]; Example 17, three HD-DoE panels, FIG. 18): 23.4
Nc1nc(OC(c2ccc(-c3cccc(F)c3)cc2)C(F)(F)F)cc(-c2ccc(C[C@H](N)C(=O)O)cc2)n1 (stereo partly drawn) [LP533401]	10.7	contributed to the induction of INS			
C/C(=C\c1ccc(C(=O)O)cc1)c1ccc2c(c1)C(C)(C)CCC2(C)C [TTNPB]	12.7		strongly inhibiting; also recorded: inhibitory	strongly inhibiting; also recorded: inhibitory	effect on beta cell state / endocrine fate [5]: strongest inducers of the beta cell state; effect on beta cell specific transcription factors / all genes optimized [5]: strongly activate all beta cell specific transcription factors
Cc1nn(-c2ccccc2)c(C)c1/C=N/N1CCN(Cc2ccccc2)CC1 [SANT1]	15.0	stronger for INS induction	increased induction	increased induction	factor contribution, PDX1 activation [4]: 5.0; effect on beta cell state / endocrine fate [5]: increased induction of endocrine fates without total specificity towards the beta cell
CC1=NS(=O)(=O)c2cc(Cl)ccc2N1 [diazoxide]		positively increased INS induction, though not significantly			
C[C@H](N)C(=O)N[C@@H](CCC(N)=O)C(=O)O [glutamax] (H-Ala-Gln-OH)		stronger for INS induction	increased induction	increased induction	effect on beta cell state / endocrine fate [5]: preferentially favoring the beta cell fate, though to a lesser level; also recorded: positive inducer of endocrine fate; also recorded: increased induction of endocrine fates without total specificity towards the beta cell
B1		positively increased INS induction, though not significantly			
